The values that follow are results of earlier work, collected in US12357592B2, “Compositions and methods for monitoring the treatment of breast disorders” (priority 2018, dated 2025).

A value given as a limit tells only on which side of the number the result lay.

The test system of this data set is breast cancer. The following applies: tamoxifen as prevention, given to healthy women; background statement.

In the case of `CC/C(=C(\c1ccccc1)c1ccc(OCCN(C)C)cc1)c1ccccc1` [Tamoxifen, (Z)-2-[4-(1,2-diphenyl-1-butenyl)phenoxy]-N,N-dimethylethanamine], the “reduce the risk of breast cancer” value is on record as no more than 50%.
